These results are taken from paper PMC8957926, “Identification of a Novel Chromate and Selenite Reductase FesR in Alishewanella sp. WH16-1” (Frontiers in Microbiology, 2022).

The target in data set [1] is T1, FesR (Alishewanella sp. WH16-1, UniProt A0A0T5PLD3).
T1 construct: Full-length, no signal peptide predicted, GST-tagged (pGEX-6p-1), eluted with glutathione, expressed in E. coli BL21(DE3); predicted 127 kDa with tag; FAD domain 16-520, two 4Fe-4S clusters 525-625
The experiment in a line: residual Cr(VI) by diphenylcarbazide colorimetry. The format is biochemical. Conditions: 1 mmol/L NADPH, pH 7.0, 50 °C, Tris-HCl, 10 min, no added FAD.

For data set [2], the target named is T2, FesR (Alishewanella sp. WH16-1, UniProt A0A0T5PLD3, R385A).
T2 construct: gene AAY72_06850; Full-length, no signal peptide predicted, GST-tagged (pGEX-6p-1), eluted with glutathione, expressed in E. coli BL21(DE3); predicted 127 kDa with tag; FAD domain 16-520, two 4Fe-4S clusters 525-625
T2 sequence (A0A0T5PLD3 1-919 R385A): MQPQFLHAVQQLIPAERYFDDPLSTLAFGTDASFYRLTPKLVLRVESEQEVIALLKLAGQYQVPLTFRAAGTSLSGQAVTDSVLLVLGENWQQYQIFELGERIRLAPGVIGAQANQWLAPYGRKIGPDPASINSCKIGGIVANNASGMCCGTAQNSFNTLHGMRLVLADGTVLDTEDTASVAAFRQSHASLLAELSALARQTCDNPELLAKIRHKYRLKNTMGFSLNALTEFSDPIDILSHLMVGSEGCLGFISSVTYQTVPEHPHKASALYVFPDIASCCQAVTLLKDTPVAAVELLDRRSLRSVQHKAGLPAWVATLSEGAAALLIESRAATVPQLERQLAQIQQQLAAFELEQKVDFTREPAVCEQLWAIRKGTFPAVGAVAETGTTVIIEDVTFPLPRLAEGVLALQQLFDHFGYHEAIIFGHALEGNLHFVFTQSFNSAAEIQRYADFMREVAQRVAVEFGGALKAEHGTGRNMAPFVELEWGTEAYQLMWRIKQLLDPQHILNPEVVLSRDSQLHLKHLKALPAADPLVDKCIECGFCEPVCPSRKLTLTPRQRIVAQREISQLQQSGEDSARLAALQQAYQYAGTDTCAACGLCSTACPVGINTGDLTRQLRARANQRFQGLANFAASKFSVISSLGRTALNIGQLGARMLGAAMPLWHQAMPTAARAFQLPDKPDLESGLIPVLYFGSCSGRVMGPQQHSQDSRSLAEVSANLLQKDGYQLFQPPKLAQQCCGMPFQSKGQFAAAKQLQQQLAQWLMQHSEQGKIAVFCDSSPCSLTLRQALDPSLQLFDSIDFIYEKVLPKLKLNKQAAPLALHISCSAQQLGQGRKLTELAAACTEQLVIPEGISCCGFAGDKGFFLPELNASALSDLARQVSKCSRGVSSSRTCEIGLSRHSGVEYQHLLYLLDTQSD
The experiment in a line: enhancement of Cr(VI) and Se(IV) reduction by added FAD. The format is biochemical. The following applies: […] FAD, […] NADPH, […] K2CrO4 or Na2SeO3, optimum pH and temperature (pH […] °C).

For a further data set, the system named is O=[Se](O)O. As to the kind of experiment: purified protein. Conditions: 1 mmol/L NADPH, pH 7.0, 50 °C, Tris-HCl, 10 min, no added FAD.

Regarding `[O]=[Cr](=[O])([OH])[OH]` [Cr(VI)], the Michaelis-Menten constant (Km) – broadly, the concentration of substrate that gives half-maximal velocity – at FesR [1] was 1680 ± 126 µM. Turning to `Cc1cc2nc3c(=O)[nH]c(=O)nc-3n(C[C@H](O)[C@H](O)[C@H](O)COP(=O)(O)OP(=O)(O)OC[C@H]3O[C@@H](n4cnc5c(N)ncnc54)[C@H](O)[C@@H]3O)c2cc1C` [FAD], the “enhancement of Cr(VI) and Se(IV) reduction by added FAD” value at FesR [2] is on record as “FAD couldn’t enhance the enzyme activity of FesR when the predicted FAD-binding residue Arg385 was mutated”. Turning to FesR (Alishewanella sp. WH16-1), the Km in the data set on O=[Se](O)O was determined as 1164.0 ± 89.4 µM.
